Test results taken from patent publication US20210169078A1, “AGENT FOR SUPPRESSING MICROBIAL GROWTH, METHOD FOR PREVENTING MICROBIAL CONTAMINATION, AND BEVERAGE” (priority 2018, published 2021).
Values after ≈ are worked out from the molar mass of the structure shown.

Experiments:
Type in all cases: cell-based
[1] = test system: Bacillus cereus (Bacillus cereus IFO 13494); experiment: Agar plate dilution MIC test; settings: IFO13494, Mueller Hinton Agar, 37 ± 1 °C, 18 to 20 hours, aerobic
[2] = test system: Staphylococcus aureus (Staphylococcus aureus subsp. aureus NBRC 12732); experiment: Agar plate dilution MIC test; settings: NBRC12732, Mueller Hinton Agar, 37 ± 1 °C, 18 to 20 hours, aerobic
[3] = test system: Clostridium difficile (spores) (Clostridium difficile ATCC 9689); experiment: Agar plate dilution MIC test; settings: Clostridioides difficile, ATCC9689; Clostridium difficile ATCC 9689 (spores); taurocholic acid-containing BHIA medium, 37 ± 1 °C, 18 to 20 hours, anaerobic
[4] = test system: Thermo-Acidophilic Bacilli (Alicyclobacillus acidoterrestris ATCC 49025); experiment: Agar plate dilution MIC test; settings: ATCC49025, 120 h, YSG agar medium, 50 ± 1 °C, 5 days, aerobic
[5] = test system: Bacillus welchii (Clostridium perfringens JCM 1290); experiment: organism not typed; settings: 24 h

`COc1cc(O)c(CC=C(C)C)c2c1C(=O)CC(c1ccc(O)cc1)O2` (centres unmarked) [Isoxanthohumol] showed an MIC [1] of 50 µg/mL (≈ 141 µM), an MIC [2] of 50 µg/mL (≈ 141 µM) and an MIC [3] of 50 µg/mL (≈ 141 µM). It also gave an MIC [4] of 25 µg/mL (≈ 70.5 µM) and an MIC [5] of 50 µg/mL (≈ 141 µM).
